Paper PMC6274539, “Photoactivatable Caged Prodrugs of VEGFR-2 Kinase Inhibitors” (Molecules, 2016)

Tests used:
Test in all cases: kinase profiling, radioactive filter binding assay
Format in all cases: biochemical
Aurora B = Aurora B (Homo sapiens, UniProt Q96GD4); conditions: 0.1 µM compound, assay duplicates; read-out: residual activity of Aurora B, mean percentage activity
Experimental: (§1) The used method was a radioactive filter binding assay using ^33P ATP, for details see references. The substances were dissolved in DMSO at tested concentration of 0.1 µM. The mean percentage residual kinase activity and standard deviations of assay duplicates were determined. Analyses were performed by the International Center for Kinase Profiling at the University of Dundee, UK.

BRSK2 = BRSK2 (Homo sapiens, UniProt Q8IWQ3); conditions: 0.1 µM compound, assay duplicates; read-out: residual activity of BRSK2, mean percentage activity
Experimental: as §1

CHK1 = CHK1 (Homo sapiens, UniProt O14757); conditions: 0.1 µM compound, assay duplicates; read-out: residual activity of CHK1, mean percentage activity
Experimental: as §1

CHK2 = CHK2 (Homo sapiens, UniProt O96017); conditions: 0.1 µM compound, assay duplicates; read-out: residual activity of CHK2, mean percentage activity
Experimental: as §1

CK1 = CK1 (Homo sapiens, UniProt P48730); conditions: 0.1 µM compound, assay duplicates; read-out: residual activity of CK1, mean percentage activity
Experimental: as §1

CK2 = CK2 (Homo sapiens, UniProt P68400); conditions: 0.1 µM compound, assay duplicates; read-out: residual activity of CK2, mean percentage activity
Experimental: as §1

EFK2 = EFK2 (Homo sapiens, UniProt O00418); conditions: 0.1 µM compound, assay duplicates; read-out: residual activity of EFK2, mean percentage activity
Experimental: as §1

ERK1 = ERK1 (Homo sapiens, UniProt P27361); conditions: 0.1 µM compound, assay duplicates; read-out: residual activity of ERK1, mean percentage activity
Experimental: as §1

FGF-R1 = FGF-R1 (Homo sapiens, UniProt P11362); conditions: 0.1 µM compound, assay duplicates; read-out: residual activity of FGF-R1, mean percentage activity
Experimental: as §1

GSK3b = GSK3b (Homo sapiens, UniProt P49841); conditions: 0.1 µM compound, assay duplicates; read-out: residual activity of GSK3b, mean percentage activity
Experimental: as §1

JNK1 = JNK1 (Homo sapiens, UniProt P45983); conditions: 0.1 µM compound, assay duplicates; read-out: residual activity of JNK1, mean percentage activity
Experimental: as §1

MNK2 = MNK2 (Homo sapiens, UniProt Q9HBH9); conditions: 0.1 µM compound, assay duplicates; read-out: residual activity of MNK2, mean percentage activity
Experimental: as §1

MST2 = MST2 (Homo sapiens, UniProt Q13188); conditions: 0.1 µM compound, assay duplicates; read-out: residual activity of MST2, mean percentage activity
Experimental: as §1

MST4 = MST4 (Homo sapiens, UniProt Q9P289); conditions: 0.1 µM compound, assay duplicates; read-out: residual activity of MST4, mean percentage activity
Experimental: as §1

P38b MAPK = P38b MAPK (Homo sapiens, UniProt Q15759); conditions: 0.1 µM compound, assay duplicates; read-out: residual activity of P38b MAPK, mean percentage activity
Experimental: as §1

PDK1 = PDK1 (Homo sapiens, UniProt O15530); conditions: 0.1 µM compound, assay duplicates; read-out: residual activity of PDK1, mean percentage activity
Experimental: as §1

PKBb = PKBb (Homo sapiens, UniProt P31751); conditions: 0.1 µM compound, assay duplicates; read-out: residual activity of PKBb, mean percentage activity
Experimental: as §1

PKC zeta = PKC zeta (Homo sapiens, UniProt Q05513); conditions: 0.1 µM compound, assay duplicates; read-out: residual activity of PKC zeta, mean percentage activity
Experimental: as §1

PRAK = PRAK (Homo sapiens, UniProt Q8IW41); conditions: 0.1 µM compound, assay duplicates; read-out: residual activity of PRAK, mean percentage activity
Experimental: as §1

RSK1 = RSK1 (Homo sapiens, UniProt Q15418); conditions: 0.1 µM compound, assay duplicates; read-out: residual activity of RSK1, mean percentage activity
Experimental: as §1

SYK = SYK (Homo sapiens, UniProt P43405); conditions: 0.1 µM compound, assay duplicates; read-out: residual activity of SYK, mean percentage activity
Experimental: as §1

TBK1 (DU12569) = TBK1 (DU12569) (Homo sapiens, UniProt Q9UHD2); conditions: 0.1 µM compound, assay duplicates; read-out: residual activity of TBK1 (DU12569), mean percentage activity
Experimental: as §1

TBK1 = TBK1 (Homo sapiens, UniProt Q9UHD2); conditions: 0.1 µM compound, assay duplicates; read-out: residual activity of TBK1, mean percentage activity
Experimental: as §1

PLK1 (Okadaic Acid) = PLK1 (Okadaic Acid) (Homo sapiens, UniProt P53350); conditions: 0.1 µM compound, assay duplicates; read-out: residual activity of PLK1 (Okadaic Acid), mean percentage activity
Experimental: (§2) To compare the active inhibitors 1 and 3, a selectivity profile over 79 kinases was recorded. The residual kinase activities are presented as a heatmap (Figure 6, for raw data see Supplementary Table S1).
as §1, with “Compounds 1 and 3 were screened against 79 kinases. The used” for “The used”

SmMLCK = SmMLCK (Homo sapiens, UniProt Q15746); conditions: 0.1 µM compound, assay duplicates; read-out: residual activity of SmMLCK, mean percentage activity
Experimental: as §2
as §1, with “Compounds 1 and 3 were screened against 79 kinases. The used” for “The used”

RSK1, sequence (Q15418 whole entry): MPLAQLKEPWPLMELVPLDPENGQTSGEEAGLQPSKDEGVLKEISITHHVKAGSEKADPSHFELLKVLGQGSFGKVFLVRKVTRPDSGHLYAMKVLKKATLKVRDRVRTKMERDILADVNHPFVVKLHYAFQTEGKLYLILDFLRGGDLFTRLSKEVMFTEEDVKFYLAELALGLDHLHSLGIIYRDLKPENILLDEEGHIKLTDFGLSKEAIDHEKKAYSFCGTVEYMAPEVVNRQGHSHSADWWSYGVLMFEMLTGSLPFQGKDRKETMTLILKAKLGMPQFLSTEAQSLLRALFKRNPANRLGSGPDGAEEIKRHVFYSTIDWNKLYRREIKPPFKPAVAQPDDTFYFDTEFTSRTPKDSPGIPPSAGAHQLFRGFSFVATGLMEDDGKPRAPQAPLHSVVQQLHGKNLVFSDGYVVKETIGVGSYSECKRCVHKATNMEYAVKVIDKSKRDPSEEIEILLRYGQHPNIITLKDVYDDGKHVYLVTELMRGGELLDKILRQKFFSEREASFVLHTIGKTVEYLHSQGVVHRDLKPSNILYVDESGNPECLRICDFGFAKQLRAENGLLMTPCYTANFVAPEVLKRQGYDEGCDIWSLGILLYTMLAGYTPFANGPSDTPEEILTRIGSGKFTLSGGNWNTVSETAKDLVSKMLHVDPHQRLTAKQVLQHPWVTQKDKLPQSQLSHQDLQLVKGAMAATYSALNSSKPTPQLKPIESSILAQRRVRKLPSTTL
CK1, sequence (P48730 whole entry): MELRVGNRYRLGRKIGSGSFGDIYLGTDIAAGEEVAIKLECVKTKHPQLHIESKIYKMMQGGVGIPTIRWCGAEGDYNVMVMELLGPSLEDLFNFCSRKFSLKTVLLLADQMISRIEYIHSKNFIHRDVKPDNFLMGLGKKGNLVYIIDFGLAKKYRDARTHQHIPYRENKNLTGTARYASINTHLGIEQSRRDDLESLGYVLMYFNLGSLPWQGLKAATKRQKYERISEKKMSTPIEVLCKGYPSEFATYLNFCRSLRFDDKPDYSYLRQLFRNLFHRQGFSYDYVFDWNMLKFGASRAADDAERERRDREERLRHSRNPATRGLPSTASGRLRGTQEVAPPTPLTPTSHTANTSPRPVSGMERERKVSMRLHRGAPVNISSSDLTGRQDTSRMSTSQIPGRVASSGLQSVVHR
PDK1, sequence (O15530 whole entry): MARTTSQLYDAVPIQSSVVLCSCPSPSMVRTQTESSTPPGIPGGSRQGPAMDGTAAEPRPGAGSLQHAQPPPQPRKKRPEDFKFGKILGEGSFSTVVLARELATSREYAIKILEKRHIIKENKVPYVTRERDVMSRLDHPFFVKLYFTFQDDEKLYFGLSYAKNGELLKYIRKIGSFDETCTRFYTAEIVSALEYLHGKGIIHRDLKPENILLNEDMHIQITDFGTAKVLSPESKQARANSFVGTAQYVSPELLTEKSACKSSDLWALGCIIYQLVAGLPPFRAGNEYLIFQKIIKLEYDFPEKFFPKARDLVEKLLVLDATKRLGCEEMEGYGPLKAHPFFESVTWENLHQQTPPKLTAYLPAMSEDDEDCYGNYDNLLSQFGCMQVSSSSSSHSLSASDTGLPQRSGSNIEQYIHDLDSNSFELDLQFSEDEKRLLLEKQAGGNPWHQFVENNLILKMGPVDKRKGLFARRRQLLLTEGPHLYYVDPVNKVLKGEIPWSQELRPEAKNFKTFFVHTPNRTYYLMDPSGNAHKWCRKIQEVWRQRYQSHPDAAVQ
BRSK2, sequence (Q8IWQ3 whole entry): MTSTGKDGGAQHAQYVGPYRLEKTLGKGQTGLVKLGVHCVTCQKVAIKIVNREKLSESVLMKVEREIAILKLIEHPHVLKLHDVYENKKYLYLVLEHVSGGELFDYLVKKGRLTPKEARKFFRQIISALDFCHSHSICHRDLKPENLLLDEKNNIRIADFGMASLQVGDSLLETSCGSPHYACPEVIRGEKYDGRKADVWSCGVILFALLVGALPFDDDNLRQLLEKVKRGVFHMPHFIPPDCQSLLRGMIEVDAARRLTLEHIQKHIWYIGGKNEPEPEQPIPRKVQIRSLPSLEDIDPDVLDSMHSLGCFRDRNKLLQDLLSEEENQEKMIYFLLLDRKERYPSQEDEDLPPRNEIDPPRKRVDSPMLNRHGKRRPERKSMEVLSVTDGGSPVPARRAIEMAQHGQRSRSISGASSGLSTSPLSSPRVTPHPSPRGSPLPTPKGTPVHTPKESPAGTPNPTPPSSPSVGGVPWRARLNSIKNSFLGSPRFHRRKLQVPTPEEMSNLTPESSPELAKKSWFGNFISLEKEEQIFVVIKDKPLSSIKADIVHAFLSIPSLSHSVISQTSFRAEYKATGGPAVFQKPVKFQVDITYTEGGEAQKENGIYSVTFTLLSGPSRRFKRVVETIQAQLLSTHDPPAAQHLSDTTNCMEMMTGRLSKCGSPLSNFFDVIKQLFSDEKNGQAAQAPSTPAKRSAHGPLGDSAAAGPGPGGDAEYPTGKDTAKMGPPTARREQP
PKBb, sequence (P31751 whole entry): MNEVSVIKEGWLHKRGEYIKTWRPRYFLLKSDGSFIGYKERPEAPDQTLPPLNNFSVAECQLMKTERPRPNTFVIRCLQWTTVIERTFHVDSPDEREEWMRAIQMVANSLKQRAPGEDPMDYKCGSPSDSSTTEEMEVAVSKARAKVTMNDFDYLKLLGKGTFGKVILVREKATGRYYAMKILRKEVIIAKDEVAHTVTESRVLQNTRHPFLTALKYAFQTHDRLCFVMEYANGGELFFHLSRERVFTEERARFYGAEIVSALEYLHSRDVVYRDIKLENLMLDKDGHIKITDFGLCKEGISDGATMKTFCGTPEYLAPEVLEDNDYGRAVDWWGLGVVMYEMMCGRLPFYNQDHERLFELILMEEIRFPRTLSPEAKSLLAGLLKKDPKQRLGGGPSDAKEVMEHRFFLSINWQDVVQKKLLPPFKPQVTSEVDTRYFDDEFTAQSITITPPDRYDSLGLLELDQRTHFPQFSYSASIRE
TBK1, sequence (Q9UHD2 whole entry): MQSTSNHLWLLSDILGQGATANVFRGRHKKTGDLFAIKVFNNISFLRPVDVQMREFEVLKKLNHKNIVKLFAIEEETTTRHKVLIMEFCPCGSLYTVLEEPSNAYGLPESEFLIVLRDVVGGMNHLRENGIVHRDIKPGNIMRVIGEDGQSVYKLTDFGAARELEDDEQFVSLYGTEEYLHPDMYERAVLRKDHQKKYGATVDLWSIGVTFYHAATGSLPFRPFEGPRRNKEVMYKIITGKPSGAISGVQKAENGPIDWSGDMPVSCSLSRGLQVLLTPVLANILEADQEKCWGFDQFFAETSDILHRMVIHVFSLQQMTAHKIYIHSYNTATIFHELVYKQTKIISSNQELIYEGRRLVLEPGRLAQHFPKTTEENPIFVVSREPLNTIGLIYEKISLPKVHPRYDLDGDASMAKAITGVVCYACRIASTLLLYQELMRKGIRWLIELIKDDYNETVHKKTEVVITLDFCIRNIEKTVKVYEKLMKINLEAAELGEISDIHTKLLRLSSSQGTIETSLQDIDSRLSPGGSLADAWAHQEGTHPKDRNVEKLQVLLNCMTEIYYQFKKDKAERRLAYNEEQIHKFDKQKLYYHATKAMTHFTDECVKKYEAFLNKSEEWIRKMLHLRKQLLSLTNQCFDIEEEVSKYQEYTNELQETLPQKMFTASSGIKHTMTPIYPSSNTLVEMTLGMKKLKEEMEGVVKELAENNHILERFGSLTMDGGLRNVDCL
TBK1 (DU12569), sequence (Q9UHD2 whole entry): as above
FGF-R1, sequence (P11362 22-822): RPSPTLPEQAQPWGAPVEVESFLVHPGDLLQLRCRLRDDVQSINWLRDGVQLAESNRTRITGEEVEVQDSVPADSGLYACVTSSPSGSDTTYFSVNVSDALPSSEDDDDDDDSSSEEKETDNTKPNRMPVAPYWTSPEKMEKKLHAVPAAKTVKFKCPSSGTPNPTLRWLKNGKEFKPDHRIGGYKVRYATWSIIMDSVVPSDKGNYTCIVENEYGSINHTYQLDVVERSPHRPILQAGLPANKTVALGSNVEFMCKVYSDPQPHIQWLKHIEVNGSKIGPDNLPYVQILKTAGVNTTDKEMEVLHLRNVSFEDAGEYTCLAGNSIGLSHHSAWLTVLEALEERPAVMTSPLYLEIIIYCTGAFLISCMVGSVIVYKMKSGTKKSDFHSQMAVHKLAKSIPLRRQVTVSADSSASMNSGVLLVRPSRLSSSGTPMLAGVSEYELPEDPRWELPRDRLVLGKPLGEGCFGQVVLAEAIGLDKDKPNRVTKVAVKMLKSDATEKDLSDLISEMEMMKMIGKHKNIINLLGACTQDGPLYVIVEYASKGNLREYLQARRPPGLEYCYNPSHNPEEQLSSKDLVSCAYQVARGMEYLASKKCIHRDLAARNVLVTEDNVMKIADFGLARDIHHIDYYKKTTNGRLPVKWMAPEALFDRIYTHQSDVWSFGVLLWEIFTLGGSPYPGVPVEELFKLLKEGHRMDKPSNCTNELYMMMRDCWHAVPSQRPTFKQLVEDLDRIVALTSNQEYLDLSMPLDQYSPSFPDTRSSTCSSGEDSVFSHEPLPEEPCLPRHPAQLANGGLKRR
P38b MAPK, sequence (Q15759 whole entry): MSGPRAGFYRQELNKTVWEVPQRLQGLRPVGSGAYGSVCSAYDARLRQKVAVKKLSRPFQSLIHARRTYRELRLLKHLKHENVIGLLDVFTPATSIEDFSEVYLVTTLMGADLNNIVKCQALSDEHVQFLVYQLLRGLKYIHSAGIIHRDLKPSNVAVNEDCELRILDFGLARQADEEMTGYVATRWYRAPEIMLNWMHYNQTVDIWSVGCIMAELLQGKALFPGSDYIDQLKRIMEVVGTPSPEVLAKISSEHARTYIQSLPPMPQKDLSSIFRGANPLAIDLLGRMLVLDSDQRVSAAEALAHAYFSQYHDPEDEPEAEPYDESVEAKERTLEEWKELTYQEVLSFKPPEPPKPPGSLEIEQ

Row | Compound | remaining activity at 0.1 µM (Aurora B) | remaining activity at 0.1 µM (BRSK2) | remaining activity at 0.1 µM (CHK1) | remaining activity at 0.1 µM (CHK2) | remaining activity at 0.1 µM (CK1) | remaining activity at 0.1 µM (CK2) | remaining activity at 0.1 µM (EFK2) | remaining activity at 0.1 µM (ERK1) | remaining activity at 0.1 µM (FGF-R1) | remaining activity at 0.1 µM (GSK3b) | remaining activity at 0.1 µM (JNK1) | remaining activity at 0.1 µM (MNK2) | remaining activity at 0.1 µM (MST2) | remaining activity at 0.1 µM (MST4) | remaining activity at 0.1 µM (P38b MAPK) | remaining activity at 0.1 µM (PDK1) | remaining activity at 0.1 µM (PKBb) | remaining activity at 0.1 µM (PKC zeta) | remaining activity at 0.1 µM (PRAK) | remaining activity at 0.1 µM (RSK1) | also measured
1 | COc1cc(C2=C(c3c[nH]c4ccccc34)C(=O)NC2=O)cc(OC)c1OC [Compound 1, 3-(1H-Indol-3-yl)-4-(3,4,5-trimethoxyphenyl)-1H-pyrrole-2,5-dione] | 84% | 94% | 72% | 64% | 86% | 94% | 104% | 100% | 69% | 21% | 96% | 90% | 53% | 94% | 86% | 68% | 98% | 102% | 91% | 96% | remaining activity at 0.1 µM (SYK): 85%; remaining activity at 0.1 µM (TBK1 (DU12569)): 88%; remaining activity at 0.1 µM (TBK1): 87%; remaining activity at 0.1 µM (PLK1 (Okadaic Acid)): 85%; remaining activity at 0.1 µM (SmMLCK): 60%
2 | COc1cc2c3c(c4c5ccccc5[nH]c4c2c(OC)c1OC)C(=O)NC3=O [Compound 3, 5,6,7-Trimethoxybenzo[a]pyrrolo[3,4-c]carbazole-1,3(2H,8H)-dione] | 47% | 66% | 34% | 63% | 78% | 91% | 109% | 91% | 92% | 5% | 96% | 81% | 24% | 69% | 89% | 39% | 91% | 98% | 85% | 51% | remaining activity at 0.1 µM (SYK): 86%; remaining activity at 0.1 µM (TBK1 (DU12569)): 73%; remaining activity at 0.1 µM (TBK1): 85%; remaining activity at 0.1 µM (PLK1 (Okadaic Acid)): 83%; remaining activity at 0.1 µM (SmMLCK): 30%
